{
  "source": "patent US20260200977A1",
  "about": "“PEPTIDE HAVING ACTIVITY OF IMPROVING STATE OF SKIN, AND USE THEREOF” (CAREGEN CO., LTD., priority 2022, published 2026)",
  "key": {"aquaporin-3 (AQP3)": {"system": "aquaporin-3 (AQP3)", "assay": "Expression of skin barrier factor by RT-PCR in HaCaT cells", "assay_type": "cell-based", "conditions": "10 μM, 50 μM or 1000 μM peptide, 24 hours, FIG. 4, FIG. 5B", "experimental": "(§1) In this example, the aim was to confirm the effect of the peptides according to an example on strengthening the skin barrier, by evaluating the expression levels of sirtuin-1 (SIRT-1) or aquaporin-3 (AQP3).\n(§2) Specifically, HaCaT cells were seeded in a 6-well plate at a density of 3×10^5 cells/well and cultured for 24 hours. Next, the cells were washed once with serum-free DMEM media, and 10 μM, 50 μM or 1000 μM of the peptide consisting of the amino acid sequence of SEQ ID NO: 1 was dispensed into 1 mL of the serum-free media, and cultured in a CO2 incubator at 37° C. for 24 hours. Next, the culture was washed twice with PBS, and RNA was isolated from the culture using easy blue (iNtRON, Cat. No.: 17061, Korea). Next, using an RT kit (Enzynomics, Cat. NO.: RT200, Korea), the isolated RNA was reverse transcribed to synthesize the respective cDNA. Next, using the synthesized 1 μg cDNA, primers for SIRT-1 or AQP3, and a PCR kit (Enzynomics, Cat. No.: P581T, Korea), polymerase chain reaction (PCR) was performed. Meanwhile, in this example, an untreated group was used as a control group, and a group to which EGF was added was used as a positive control group, the nucleotide sequences of the primers used in this example are shown in Table 3 below."}, "sirtuin-1 (SIRT-1)": {"system": "sirtuin-1 (SIRT-1)", "assay": "Expression of skin barrier factor by RT-PCR in HaCaT cells", "assay_type": "cell-based", "conditions": "10 μM, 50 μM or 1000 μM peptide, 24 hours, FIG. 4, FIG. 5A", "experimental": "as §1, §2"}, "elastin": {"system": "elastin", "assay": "Expression of extracellular matrix component by RT-PCR in NIH3T3 cells", "assay_type": "cell-based, mouse", "conditions": "10 μM, 50 μM or 1000 μM peptide, 24 hours, FIG. 2, FIG. 3C", "experimental": "(§3) In this example, the aim was to confirm the effect of the peptide according to an example on improving endogenous skin aging, including improvement of wrinkles and enhancement of elasticity, etc., by evaluating the expression levels of collagen type 1 (CoI1a1), fibronectin, elastin, and hyaluronic acid, which are known components of the dermis.\n(§4) Specifically, NIH3T3 cells were seeded in a 6-well plate at a density of 3×10^5 cells/well and cultured for 24 hours. Next, the cells were washed once with serum-free DMEM media, and 10 μM, 50 μM or 1000 μM of a peptide consisting of an amino acid sequence of SEQ ID NO: 1 was dispensed into 1 mL of the serum-free media, and cultured in a CO2 incubator at 37° C. for 24 hours. Next, the culture was washed twice with PBS, and RNA was isolated from the culture using easy blue (iNtRON, Cat. No.: 17061, Korea). Next, using an RT kit (Enzynomics, Cat. NO.: RT200, Korea), the isolated RNA was reverse transcribed to synthesize the respective cDNA. Next, using the synthesized 1 μg cDNA, primers for CoI1a1, fibronectin, or elastin, and a PCR kit (Enzynomics, Cat. No.: P581T, Korea), polymerase chain reaction (PCR) was performed. Meanwhile, in this example, an untreated group was used as a control group, and a group to which IGF was added was used as a positive control group, the nucleotide sequences of the primers used in this example are shown in Table 2 below."}, "collagen type 1 (CoI1a1)": {"system": "collagen type 1 (CoI1a1)", "assay": "Expression of extracellular matrix component by RT-PCR in NIH3T3 cells", "assay_type": "cell-based, mouse", "conditions": "10 μM, 50 μM or 1000 μM peptide, 24 hours, FIG. 2, FIG. 3A", "experimental": "as §3, §4"}, "fibronectin": {"system": "fibronectin", "assay": "Expression of extracellular matrix component by RT-PCR in NIH3T3 cells", "assay_type": "cell-based, mouse", "conditions": "10 μM, 50 μM or 1000 μM peptide, 24 hours, FIG. 2, FIG. 3B", "experimental": "as §3, §4"}, "NIH3T3 cells": {"system": "NIH3T3 cells", "assay": "Proliferation of skin cells, MTT (change in cell survival rate)", "assay_type": "cell-based, mouse", "conditions": "50 μM or 100 μM peptide, serum-free media, 72 hours, MTT absorbance 540 nm, FIG. 1", "experimental": "In this example, the aim was to confirm the effect of a peptide according to an example on proliferation of skin cells, by evaluating changes in survival rate of NIH3T3 cells, which are mouse fibroblasts.\nSpecifically, NIH3T3 cells were seeded in a […] at a density of 1×10^4 cells/well and cultured for 24 hours. Next, the cells were washed once with serum-free DMEM media, and 50 μM or 100 μM of a peptide consisting of an amino acid sequence of SEQ ID NO: 1 was dispensed into 200 μL of the serum-free media, and cultured in a CO2 incubator at 37° C. for 72 hours. Next, the culture was washed twice with PBS, and MTT solution was dispensed into each well at a concentration of 0.5 mg/ml. Next, it was shaded from light and cultured in a CO2 incubator at 37° C. for 4 hours, and the absorbance at 540 nm was measured using a microplate reader (Molecular Devices, USA)."}, "HaCaT cells": {"system": "HaCaT cells", "assay": "Reactive oxygen species increased by ultraviolet irradiation, DCFH-DA flow cytometry", "assay_type": "cell-based", "conditions": "50 μM or 1000 μM peptide, 15 mJ/cm^2 ultraviolet rays, 24 hours, FACS, FIG. 6", "experimental": "In this example, the aim was to confirm the effect of the peptide according to an embodiment on the antioxidant effect in damaged skin, by evaluating the change in the level of reactive oxygen species in skin cells increased by ultraviolet irradiation.\nSpecifically, HaCaT cells were seeded in a 6-well plate at a density of 5×10^5 cells/well and cultured for 24 hours. Next, the cells were washed once with serum-free DMEM media, and 50 μM or 1000 μM of a peptide consisting of an amino acid sequence of SEQ ID NO: 1 was dispensed into 1 mL of the serum-free media, and cultured in a CO2 incubator at 37° C. for […]. Next, the above culture was transferred to an e-tube, mixed with 1 ml of PBS, and dispensed into a well plate. Next, using a UV irradiator (VILBER LOURMAT, Cat No.: 3102-BSU, France), 15 mJ/cm^2 ultraviolet rays were irradiated to HaCaT cells. Next, the PBS in the well plate was removed, 900 μL of the culture medium in which the peptides were dispensed was added, and the plate was cultured in a CO2 incubator at 37° C. for 24 hours. Next, the culture was treated with DCFH-DA (2′,7′-dichlorofluorescin diacetate), wrapped in foil, and cultured in a CO2 incubator at 37° C. for 30 minutes. […] After washing the centrifuged cells with PBS, fluorescence values were measured through flow cytometry (FACS, BD, USA). […]"}},
  "data": [
    {"sequence": "TNRTEVEG [SEQ ID NO: 1]", "values": [
      {"measurement": "expression of AQP3", "setting": "aquaporin-3 (AQP3)", "value": "increased"},
      {"measurement": "expression of SIRT-1", "setting": "sirtuin-1 (SIRT-1)", "value": "increased"},
      {"measurement": "expression of elastin", "setting": "elastin", "value": "increased"},
      {"measurement": "expression of CoI1a1", "setting": "collagen type 1 (CoI1a1)", "value": "increased"},
      {"measurement": "expression of fibronectin", "setting": "fibronectin", "value": "increased"},
      {"measurement": "proliferation of fibroblasts", "setting": "NIH3T3 cells", "value": "promoted"},
      {"measurement": "level of reactive oxygen species in keratinocytes increased by ultraviolet irradiation", "setting": "HaCaT cells", "value": "reduced"}
    ]}
  ]
}
